# Data as given in patent US5298652A, “N-substituted glycines, inhibitors of phospholipase A2” (Hoffmann-La Roche Inc., priority 1992, dated 1994).
# What was measured:
# [1] = test system: croton oil-induced mouse ear edema; experiment: Croton oil mouse ear edema test; format: in vivo, male CD-1 mice; settings: 1 mg topical, coapplied with croton oil; ear punch weight at 6 hours
# Description: Croton Oil Mouse Ear Edema Test
# The croton oil-induced mouse ear edema test, a model of irritant-induced contact dermatitis, has been used for evaluation of the PLA2 inhibitors by the topical route of administration. This test was carried out as described in the following references: […]
# Twenty five μl of a 1% croton oil solution [dissolved in a mixture of pyridine/water/diethyl ether at a ratio of 5/20/75 (croton oil vehicle)] are applied to the outer side of the right ear of 3-4 week old male CD-1 mice (8 animals per group). The test compounds are dissolved directly in the 1% croton oil solution at various concentrations and coapplied. Control animals receive 25 μl of croton oil vehicle on the right ear. Biopsy punches are removed at 6 hours from the right ear of the animals using a 6 mm skin trephine (Roboz, Washington, D.C.) and the wet weight of the ear punches is determined. The weight of the biopsy punches is a measure of ear inflammation, primarily edema. The data are expressed as percent inhibition relative to control groups.
# Statistical analysis of the mean edema values of the control versus the treated groups is performed using Student's t-test. The significance of changes from mean value for vehicle-treated animals is as follows (*p<0.05, **p<0.01, ***p<0.005, ns/not significant).
# [2] = target: T1, HSF-PLA2 (extracellular PLA2 obtained from human synovial fluid) (Homo sapiens, UniProt P14555); experiment: Assay for inhibition of HSF-PLA2 in vitro; format: biochemical; settings: read-out: % Inhib of HSF-PLA2; for inhibition at 5 µM: 5 μM test compound; for inhibition at 1 µM: 1 μM test compound
# T1 construct: extracellular enzyme obtained from human synovial fluid; from tissue; host or cells: human synovial fluid (pooled)
# T1 sequence (P14555 21-144): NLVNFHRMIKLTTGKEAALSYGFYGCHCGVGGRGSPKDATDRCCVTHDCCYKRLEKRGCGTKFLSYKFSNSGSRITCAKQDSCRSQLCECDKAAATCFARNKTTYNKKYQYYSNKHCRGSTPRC
# Description: Assay for Inhibition of HSF-PLA2 In Vitro
# The PLA2 used in this test is the extracellular enzyme obtained from human synovial fluid (HSF-PLA2).
# The assay for HSF-PLA2 activity was a modification of the described method [Franson R., Dobrow R., Weiss, J., Elsbach P., and Weglick W. B., J. Lipid Res., 19, 18-23 (1978)] which was conducted using [1-^14 C]-oleate-labelled E. coli substrate in excess at a final concentration of 20,000 dpm/ml. This was equivalent to 18.2 mM of cell membrane phospholipid phosphorus and 2×10^9 autoclaved E. coli/ml. The optimal conditions which were developed for the assay of HSF-PLA2 inhibitors are summarized as follows. A total volume of 0.5 ml of reaction mixture typically had the following final composition: substrate (20,000 dpm/ml); enzyme (0.1% HSF, v/v); 2 mM CaCl2; 150 mM Na^+; 50 mM sodium HEPES buffer, pH 7.3; and 1% dimethyl sulfoxide (DMSO, used to solubilize test inhibitors) in the presence or absence of inhibitor. The reaction was initiated by the addition of HSF-PLA2 and duplicate samples of the mixture were incubated in 13×100 mm glass tubes with shaking for 30 minutes at 37° C. The reaction was terminated by the addition of 2.5 ml of chloroform-methanol (1 to 1.5, v/v). The extraction of lipids from the stopped reaction mixture was conducted by the further additions of 0.5 ml of chloroform and 1 ml of water with mixing. After centrifuging, the lower chloroform phase was transferred to smaller glass tubes and the solvent was evaporated to dryness with a nitrogen stream. The extracted lipid residue was redissolved in […] of a solution containing carrier oleic acid (0.2 mg/ml) in chloroform-methanol [9 to 1, v/v]). The whole lipid extract was applied to a preactivated (30 minutes at 110° C.) silica gel-impregnated glass fiber thin layer chromatography sheet (ITLC type SG sheet from Gelman Sciences Inc., Ann Arbor, Mich.) using hexane-acetic acid (100 to 1, v/v) as the developing solvent. This TLC system rapidly (6 minutes) resolved the enzymatically released product, ^14 C-oleic acid, from the unreacted ^14 C-phospholipid substrate. The unsaturated lipids were located on the chromatogram by a brief exposure to iodine vapor. The oleic acid zone (Rf value 0.95) and phospholipid zone (origin) were cut out, chopped into small pieces, shaken with 2 ml of ethanol-water (80 to 20, v/v) and 15 ml of Aquasol and counted for radio-activity. A control incubation of substrate in the absence of HSF-PLA2 was performed in each experiment. The PLA2 activity of the human synovial fluid was corrected for this small control value. […] The specific activity of PLA2 in the pooled human synovial fluid under the optimal assay conditions was 49.2 nmoles [1-^14 C]-oleic aid released hour^-1 mg^-1. The IC50 (μM concentration of test compound that produces 50% inhibition of PLA2 activity) was determined for each test compound.
Structure (SMILES),inhibition at 5 µM [2],inhibition at 1 µM [2],% Inhib of Croton Oil Mouse Ear Edema (1 mg) [1]
"CCCCCCCCCCOc1cccc(C(=O)N(CC(=O)O)CC(=O)O)c1 [Example 6, N-(Carboxymethyl)-N-[3-(decyloxy)benzoyl]glycine]",8%,–,47%
"CCCCCCCCCCCCCCCCCC(=O)Nc1cccc(C(=O)N(CC(=O)O)CC(=O)O)c1 [Example 9, N-(carboxymethyl)-N-[3-(1-oxooctadecylamino)benzoyl]glycine]",8%,–,20%
CCCCCCCCCCCCCCCCCCOc1cc(OCCOc2ccc3ccccc3c2)cc(C(=O)N(CC(=O)O)CC(=O)O)c1 [Example 25],-16%,–,44%
"CCCCCCCCCCCCCCCCCCOc1cc(OCC(=O)O)cc(C(=O)N(CC(=O)O)CC(=O)O)c1 [Example 33, N-(Carboxymethyl)-N-[3-(carboxymethoxy)-5-(octadecyloxy)benzoyl]glycine]",–,29%,71%
"CCCCCCCCCCCCCCCCCCOc1cc(OCCCOc2ccccc2)cc(C(=O)N(CC(=O)O)CC(=O)O)c1 [Example 18, N-(Carboxymethyl)-N-[3-[3-(phenoxy)propoxy]-5-(octadecyloxy)benzoyl]glycine]",72%,–,59%
"CCCCCCCCCCCCCCCCCCOc1cc(OCCCOc2cccc([N+](=O)[O-])c2)cc(C(=O)N(CC(=O)O)CC(=O)O)c1 [Example 22, N-(Carboxymethyl)-N-[3-[3-(3-nitrophenoxy)propoxy]-5-(octadecyloxy)benzoyl]glycine]",60%,–,54%
"CCCCCCCCCCCCCCCCCCOc1cc(O)cc(C(=O)N(CC(=O)O)CC(=O)O)c1 [Example 39, N-(Carboxymethyl)-N-[3-hydroxy-5-(octadecyloxy)benzoyl]glycine]",20%,–,47%
"CCCCCCCCCCCCCCOc1cccc(C(=O)N(CC(=O)O)CC(=O)O)c1 [Example 5, N-(Carboxymethyl)-N-[3-(tetradecyloxy)benzoyl]glycine]",13%,–,–
"O=C(O)CCCCCCCCCCOc1cc(OCCCCCCCCCCC(=O)O)cc(C(=O)N(CC(=O)O)CC(=O)O)c1 [Example 35, N-(carboxymethyl)-N-[3,5-bis[(10-carboxydecyl)oxy]benzoyl]glycine]",5%,–,50%
"CCCCCCCCCCCCCCCCCCOc1cc(OCCCOc2ccc(OC)cc2)cc(C(=O)N(CC(=O)O)CC(=O)O)c1 [Example 20, N-(carboxymethyl)-N-[3-[3-(4-methoxyphenoxy)propoxy]-5-(octadecyloxy)benzoyl]glycine]",–,18%,–
"CCCCCCCCCCCCCCCCCCOc1cc(C(=O)O)cc(C(=O)N(CC(=O)O)CC(=O)O)c1 [Example 30, N-(Carboxymethyl)-N-[3-carboxy-5-(octadecyloxy)benzoyl]glycine]",23%,–,–
"CCCCCCCCCCCCCCCCCCOc1cc(OCc2ccccc2)cc(C(=O)N(CC(=O)O)CC(=O)O)c1 [Example 38, N-(Carboxymethyl)-N-[3-(octadecyloxy)-5-(phenylmethoxy)benzoyl]glycine]",55%,–,35%
"CCCCCCCCCCCCCCCCCCOc1cc(OCCCOc2cccc(N)c2)cc(C(=O)N(CC(=O)O)CC(=O)O)c1 [Example 23, N-(Carboxymethyl)-N-[3-[3-(3-aminophenoxy)propoxy]-5-(octadecyloxy)benzoyl]glycine]",50%,–,21%
"CCCCCCCCCCCCCCOc1cc(OCCCCCCCCCCCCCC)cc(C(=O)N(CC(=O)O)CC(=O)O)c1 [Example 13, N-(Carboxymethyl)-N-[3,5-bis(tetradecyloxy)benzoyl]glycine]",–,27%,60%

# The next lines start with results.
inhibition at 5 µM [2],inhibition at 1 µM [2],Structure (SMILES),% Inhib of Croton Oil Mouse Ear Edema (1 mg) [1]
10%,–,"CCCCCCCCCCCCCCCCCCOc1cc(C(=O)N(CC(=O)O)CC(=O)O)cc([N+](=O)[O-])c1 [Example 43, N-(carboxymethyl)-N-[3-nitro-5-(octadecyloxy)benzoyl]glycine]",48%
34%,–,"CCCCCCCCCCCCCCCCCCOc1cc(N)cc(C(=O)N(CC(=O)O)CC(=O)O)c1 [Example 44, N-(Carboxymethyl)-N-[3-amino-5-(octadecyloxy)benzoyl]glycine]",35%
23%,–,"CCCCCCCCCCCCCCCCCCOc1cccc(C(=O)NCC(=O)O)c1 [Example 74, N-[3-(Octadecyloxy)benzoyl]glycine]",33%
57%,–,"CCCCCCCCCCCCCCCCCCOc1cccc(C(=O)C(=O)N(CC(=O)O)CC(=O)O)c1 [Example 69, N-(Carboxymethyl)-N-[2-[3-(octadecyloxy)phenyl]-1,2-dioxoethyl]glycine]",28%
45%,–,"CCCCCCCCCCCCCCCCCCOc1cccc(CC(=O)N(CC(=O)O)CC(=O)O)c1 [Example 76, N-(Carboxymethyl)-N-[3-(octadecyloxy)phenylacetyl]glycine]",38%
38%,–,"CCCCCCCCCCCCCCOc1ccc(C(=O)N(CC(=O)O)CC(=O)O)cc1OCCCCCCCCCCCCCC [Example 51, N-(Carboxymethyl)-N-[3,4-bis(tetradecyloxy)benzoyl]glycine]",–
68%,–,"CCCCCCCCCCCCCCCCCCOc1cccc(/C=C/C(=O)N(CC(=O)O)CC(=O)O)c1 [Example 78, (E)-N-(carboxymethyl)-N-[3-[(3-octadecyloxy)phenyl]-1-oxo-2-propenyl]glycine]",48%
70%,–,"CCCCCCCCCCCCCCCCCCOc1cccc(CCC(=O)N(CC(=O)O)CC(=O)O)c1 [Example 79, N-(Carboxymethyl)-N-[3-[(3-octadecyloxy)phenyl]-1-oxopropyl]glycine]",–
